This is an account of results in US20090275474A1, “PESTICIDAL APPLICATIONS OF DIMETHYL CYANAMIDE” (Metbro Distributing L.P., priority 2008, published 2009).

“Also recorded” adds a separate entry of the source.

Format in all cases: in vivo
The test system of assay [1] is beneficial microbivorous nematodes. As to the kind of experiment: Example 2 pot test, microbivorous nematodes in soil. The note with it: soil drench 20-150 mgs. A.I./kg soil. As for the experimental part: (§1) Dimethyl cyanamide and diisopropyl cyanamide (both obtained from Aldrich) were delivered in aqueous preparations (1.25% active ingredient) (A.I.) prepared immediately before use by diluting in demineralized water while stirring with a magnetic stirrer. […] Each compound was delivered at rates of 0, 20, 40, 60, 80, 100, and 150 mgs. A.I./kg soil—equivalent to […].
(§2) Each treatment was delivered by drenching in 100 mL aqueous volume onto the soil surface in pots (10-cm diam.; PVC) containing 1 kg soil. The soil (silt loam; pH 6.2; cec<10 meq/100 gm soil; org. matter<1.0%) was from a cotton field severely infested with the reniform nematode [Rotylenchulus reniformis]. Immediately after treatment the pots were covered by a thick (1.5 mil) clear low density polyethylene bag held tight against the outer wall of the pot by a rubber band. Eleven days after application the bags were removed and soil samples were taken from every pot (experimental unit) for nematological analysis (salad bowl incubation technique). […] Final root and soil nematode populations were determined and plant growth parameters (number and height of plants, weights of shoots and roots, root condition indices) were recorded. […]

Assay [2] deals with dorylaimida (predatory, not plant parasitic nematodes). As to the kind of experiment: Example 2 pot test, soil populations of dorylaimida. Particulars: soil drench 20-150 mgs. A.I./kg soil. As for the experimental part:
as §1, §2

Assay [3] deals with Yellow nutsedge [Cyperus esculentus], crabgrass [Digitaria sanguinalis], sicklepod [Senna obtusifolia], morningglory [Ipomoea spp.], and other annual weeds. Nature of the assay: Example 3 herbicidal pot test, soil drench, weed counts. The note with it: for herbicidal activity against all weed species tested: soil drench 100-800 mgs. A.I./kg soil, weed counts 11, 19, 26 and 32 days after application, FIGS. 11-12. As for the experimental part:
Hydrogen cyanamide and dimethyl cyanamide were delivered in aqueous 5% solutions prepared immediately before use by diluting in demineralized water while stirring with a magnetic stirrer. Both chemicals were obtained from Aldrich. Each compound was delivered at rates of 0, 100, 200, 300, 400, 600, and 800 mgs. A.I./kg soil—equivalent to 0, 200, 400, 600, 800, 1200, and 1600 lbs A.I./acre.
Each treatment was delivered by drenching in 100 mL aqueous volume onto the soil surface in pots [10-cm diam.; PVC] containing 1 kg soil. The soil was from a cotton field [silt loam; ph 6.2; cec<10 meq/100 gm soil; org. matter<1.0%]. Immediately after treatment the pots were covered by a thick [1.5 mil] clear low density polyethylene bag held tight against the outer wall of the pot by a rubber band. Eleven days after application the bags were removed. Weed counts were taken from each pot [experimental unit] at 11, 19, 26 and 32 days after application of the treatments.
Major pests: Yellow nutsedge [Cyperus esculentus], crabgrass [Digitaria sanguinalis], sicklepod [Senna obtusifolia], morningglory [Ipomoea spp.], and other annual weeds.
Experimental design: Randomized complete block with seven replications/treatments.
(§3) Statistical analyses: ANOVA and Fischer's least significant difference [FLSD] at p 0.05. Regression analyses.

Assay [4] has as its system dorylaimida (predatory, not plant parasitic nematodes). Nature of the assay: Example 1 pot test, soil populations of dorylaimida. The note with it: soil drench 25-200 mg A.I./kg soil. As for the experimental part: (§4) Hydrogen cyanamide (Dormex® formulation, Dormex Corp.) and dimethyl cyanamide (Aldrich) were delivered in aqueous preparations (1.25% active ingredient) (A.I.) prepared immediately before use by diluting in demineralized water while stirring with a magnetic stirrer. Each compound was delivered at rates of 0, 25, 50, 75, 100, 150, and 200 mg A.I./kg soil—equivalent to 0, 50, 100, 150, 200, 300, and 400 lbs A.I./acre.
as §2, with “drenching the compound” for “drenching”, “nematode (Rotylenchulus reniformis).” for “nematode [Rotylenchulus reniformis].”, “covered with” for “covered by”, “(number &” for “(number and”

For assay [5], the system named is reniform nematode (Rotylenchulus reniformis). Nature of the assay: Example 1 pot test, soil drench, reniform nematode in soil and soybean roots. The note with it: for nematicidal activity against the reniform nematode in soil and soybean roots: soil drench 25-200 mg A.I./kg soil, soil sampled 11 days after application and after eight weeks of soybean growth, FIGS. 1-6. How it is done: as §4
Each treatment was delivered by drenching the compound in 100 mL aqueous volume onto the soil surface in pots (10-cm diam.; PVC) containing 1 kg soil. The soil (silt loam; pH 6.2; cec<10 meq/100 gm soil; org. matter<1.0%) was from a cotton field severely infested with the reniform nematode (Rotylenchulus reniformis). Immediately after treatment the pots were covered with a thick (1.5 mil) clear low density polyethylene bag held tight against the outer wall of the pot by a rubber band. Eleven days after application the bags were removed and soil samples were taken from every pot (experimental unit) for nematological analysis (salad bowl incubation technique). Each pot was then planted with five seeds of nematode-susceptible “Hutcheson” soybean (glycine max) and the resulting plants were grown for eight weeks, at which time the plants were removed and soil samples were taken from each pot. Final root and soil nematode populations were determined and plant growth parameters (number & height of plants, weights of shoots and roots, root condition indices) were recorded.
Major pests: The reniform nematode [Rotylenchulus reniformis].
(§5) Experimental design: Randomized complete block with seven replications/treatment.
as §3

Assay [6] concerns beneficial microbivorous nematodes. Nature of the assay: Example 1 pot test, microbivorous nematodes in soil. The note with it: soil drench 25-200 mg A.I./kg soil. As for the experimental part: as §4
as §2, with “drenching the compound” for “drenching”, “nematode (Rotylenchulus reniformis).” for “nematode [Rotylenchulus reniformis].”, “covered with” for “covered by”, “(number &” for “(number and”

The test system of assay [7] is "Hutcheson" soybean (glycine max). Nature of the assay: Example 1 pot test, growth of soybean plants in nematode-infested soil. The note with it: after eight weeks of growth. How it is done:
as §4
as §2, with “drenching the compound” for “drenching”, “nematode (Rotylenchulus reniformis).” for “nematode [Rotylenchulus reniformis].”, “covered with” for “covered by”, “(number &” for “(number and”

The test system of assay [8] is "Rowden" cotton (Gossipyum hirsutum). As to the kind of experiment: Example 2 pot test, growth and root health of cotton plants in nematode-infested soil. How it is done:
as §1
Each treatment was delivered by drenching in 100 mL aqueous volume onto the soil surface in pots (10-cm diam.; PVC) containing 1 kg soil. The soil (silt loam; pH 6.2; cec<10 meq/100 gm soil; org. matter<1.0%) was from a cotton field severely infested with the reniform nematode [Rotylenchulus reniformis]. Immediately after treatment the pots were covered by a thick (1.5 mil) clear low density polyethylene bag held tight against the outer wall of the pot by a rubber band. Eleven days after application the bags were removed and soil samples were taken from every pot (experimental unit) for nematological analysis (salad bowl incubation technique). Each pot was then planted with five seeds of nematode-susceptible “Rowden” cotton (Gossipyum hirsutum) and the resulting plants were grown for eight weeks, at which time the plants were removed and soil samples were taken from each pot. Final root and soil nematode populations were determined and plant growth parameters (number and height of plants, weights of shoots and roots, root condition indices) were recorded.
as §5
Statistical analyses: ANOVA and Fischer's least significant difference [FLSD] at p
0.05. Regression analyses.

Assay [9] deals with reniform nematode [Rotylenchulus reniformis]. As to the kind of experiment: Example 2 pot test, soil drench, reniform nematode in soil. Particulars: soil drench 20-150 mgs. A.I./kg soil; FIGS. 7-10. How it is done: as §1, §2
The subject of assay [10] is Yellow nutsedge [Cyperus esculentus], crabgrass [Digitaria sanguinalis], sicklepod [Senna obtusifolia], morningglory [Ipomoea spp], and other annual weeds. As to the kind of experiment: Example 4 herbicidal pot test, dimethyl cyanamide alone and in combination with EPTC, weed counts. As for the experimental part:
Dimethyl cyanamide was delivered in a 5% aqueous solution. The herbicide EPTC [ethyl n-propyl thiocarbamate] was delivered in an aqueous emulsion containing 0.1192% A.I. Both formulations were prepared immediately before use by diluting or mixing [a concentrated formulation?] in demineralized water while stirring with a magnetic stirrer. The dimethyl cyanamide was obtained from Aldrich. The EPTC used was a commercial formulation [Eptam® herbicide, Gowan].
Dimethyl cyanamide was applied at rates of 0, 50, 100, 200, 300, and 400 mg A.I./kg soil—equivalent to 0, 100, 200, 400, 600, and 800 lbs A.I./acre, respectively. EPTC was delivered at 0 and 3.576 mg/kg soil, equivalent to 0 and approximately 7 lbs. A.I./acre. All possible combinations of the two compounds at their corresponding rates were included in the experiment.
Each treatment was delivered by drenching in 100 mL aqueous volume onto the soil surface in pots [10-cm diam.; PVC] containing 1 kg soil. The soil was from a cotton field [silt loam; ph 6.2; cec<10 meq/100 gm soil; org. matter<1.0%1. Immediately after treatment the pots were covered by a thick [1.5 mil] clear low density polyethylene bag held tight against the outer wall of the pot by a rubber band. Six days after application the bags were removed. Weed counts were taken from each pot [experimental unit] at 6, 12, 17, 47, and 62 days after application of the treatments. […]

In the case of `CC(C)N(C#N)C(C)C` [diisopropyl cyanamide, reference compound], the “soil populations of beneficial microbivorous nematodes” value in assay [1] is recorded as “either reduced or not affected”. In assay [2], the “soil populations of dorylaimida” value is on record as “either reduced or not affected”.

As to `N#CN` [hydrogen cyanamide, Hydrogen cyanamide, reference compound], the “herbicidal activity against all weed species tested” value in assay [3] was “herbicidal against all weed species tested”. Also, the “soil populations of dorylaimida” value in [4] is “similarly reduced”. Also, in assay [5], the “nematicidal activity against the reniform nematode in soil and soybean roots” value was “nematicidal, resulting in suppression or elimination of the reniform nematode in soil and soybean roots”. Further, the “root populations of the reniform nematode, compared between the two compounds” value in [5] (soybean roots after eight weeks, hydrogen cyanamide vs dimethyl cyanamide) is “lower”. In addition, the “effect on beneficial microbivorous nematodes” value in assay [6] was “not significantly affected”.

For the compound `CN(C)C#N` [dimethyl cyanamide, Dimethyl cyanamide], the “soil populations of beneficial microbivorous nematodes” value in assay [1] is recorded as “either reduced or not affected”. Also, in assay [3] (dose-response expressed in terms of mg of CN added to the soil, one exception (sicklepod)), the “herbicidal activity compared with hydrogen cyanamide” value is “superior to hydrogen cyanamide as a herbicide”. In addition, the “herbicidal activity against all weed species tested” value in assay [3] is reported as “herbicidal against all weed species tested; also recorded: considerable herbicidal activity equivalent to or better than that shown by hydrogen cyanamide”. Also, the “soil populations of dorylaimida” value in [4] is “similarly reduced”; in [2] it was “either reduced or not affected”. In addition, in [7], the “soybean plant height and weights of shoots and roots, compared with pots treated with hydrogen cyanamide” value was “taller and with heavier shoots and roots”. Further, the “root health as indicated by root appearance indices” value in [8] (dimethyl cyanamide: two highest rates, diisopropyl cyanamide: any rate) is given as “markedly improved”. For the same compound, the “number of cotton plants/pot, dimethyl cyanamide vs diisopropyl cyanamide” value in assay [8] (in vivo) is reported as “higher”. The “cotton plant heights and shoot and root weights” value in assay [8] (two highest rates, after eight weeks) is “concomitant increase”. The “effectiveness as a nematicide relative to hydrogen cyanamide” value in assay [5] (considered in terms of the rates of cyanamide anion applied) was “more effective as a nematicide than hydrogen cyanamide”. In addition, the “overall results on delivery at the same rate (kg/ha) as hydrogen cyanamide” value in [5] (same weight rate, hydrogen cyanamide contains approximately 1.66 times as much cyanamide (NCN group)) is given as “very similar results overall”. Further, in [5], the “nematicidal activity against the reniform nematode in soil and soybean roots” value was “nematicidal, resulting in suppression or elimination of the reniform nematode in soil and soybean roots; also recorded: powerful nematicide”. Further, in [9], the “nematicidal activity against the reniform nematode in soil” value is “nematicidal, resulting in suppression or elimination of the reniform nematode in soil; also recorded: powerful nematicide”. Further, in assay [6], the “effect on beneficial microbivorous nematodes” value is reported as “not significantly affected”. For the same compound, the “herbicidal activity of dimethyl cyanamide during the initial counts in the presence of EPTC” value in [10] was “almost “masked” by that of EPTC”.
